1 molecule from article PMC11781366 (Immunity, 2023) can be followed below.

One assay relates to D. serrata STING. In words: microscale thermophoresis in lysates of transfected S2 cells. It counts as biochemical, Drosophila serrata.
Assay [1] addresses T1, D. melanogaster STING (dSTING) (Drosophila melanogaster, UniProt A0A0B4LFY9).
T1 sequence (A0A0B4LFY9 1-343): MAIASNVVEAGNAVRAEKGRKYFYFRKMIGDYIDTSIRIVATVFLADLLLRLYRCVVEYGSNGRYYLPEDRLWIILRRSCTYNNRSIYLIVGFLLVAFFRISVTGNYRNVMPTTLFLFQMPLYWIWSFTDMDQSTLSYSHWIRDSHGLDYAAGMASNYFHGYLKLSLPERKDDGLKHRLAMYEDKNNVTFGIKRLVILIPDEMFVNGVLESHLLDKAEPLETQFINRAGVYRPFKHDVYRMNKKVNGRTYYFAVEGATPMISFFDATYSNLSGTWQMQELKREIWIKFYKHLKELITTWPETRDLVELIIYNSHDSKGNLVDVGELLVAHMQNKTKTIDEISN
The description is as above. It counts as biochemical.

Turning to `Nc1nc2c(ncn2[C@@H]2O[C@@H]3COP(=O)(O)O[C@@H]4[C@H](O)[C@@H](COP(=O)(O)O[C@H]3[C@H]2O)O[C@H]4n2cnc3c(=O)[nH]c(N)nc32)c(=O)[nH]1` [2′3′-c-di-GMP], the Kd in the assay with D. serrata STING amounted to 36.7 µM; in assay [1], 28.2 µM.

What is called Kd is the equilibrium constant for the complex coming apart.
